These results are taken from patent US12428413B2 (CHDI Foundation, Inc., priority 2019, dated 2025).

Molecules are shown by their SMILES. Counter-ions that a name gives are not always drawn.

In assay [1] the test system is cellular ROCK activity (cofilin phosphorylation at Ser3) in A7r5 rat smooth muscle cells. The assay can be described thus: Cellular ROCK activity: cofilin (Ser3) phosphorylation, In-Cell Western assay. The format is cell-based. Conditions: Rattus norvegicus, A7R5, 1 h, 1 hour compound incubation, phospho-cofilin (Ser3), read-out: CELL_IC50. As to the method: The potency of Rho-associated protein kinase (ROCK) inhibitors was quantified by measuring cofilin phosphorylation levels at Serine 3 (Ser3) as a measure of cellular ROCK activity by In-Cell Western assay. […] The assay plate was imaged and quantified on the Odyssey imager (LICOR Biosciences).
ROCK inhibitor compound plate preparation. […] Stock compounds and control are added directly to ECHO plate (Labcyte) by Janus.
A7r5 cell culture and plating. A7r5 cells were cultured according to standard cell culture protocols in A7r5 growth media (DMEM with Glutamax and 10% FBS). […] 45 μl of re-suspended A7r5 cells were plated at 3000 cells/well in a sterile, μclear, black, F-bottom, 384-well microplate (Greiner bio-one). Seeded cells allowed to settle in wells on the bench for 1 hour before incubation at 37° C., 5% CO2 overnight.
Assay reagent and antibody preparations. Wash buffer was prepared by addition of Tween-20 to Dulbecco's Phosphate Buffered Saline (DPBS) (1×) without calcium and magnesium to make 1% Tween-20 as final concentration. Blocking buffer was prepared by addition of TritonX-100 to SeaBlock buffer (ThermoFisher) to make 0.3% TritonX-100 as final concentration. […] Secondary antibody mix was prepared by diluting donkey anti-rabbit 800CW antibody (LICOR Biosciences) 1:1000 in SeaBlock buffer.
Assay procedure. Compound plate was diluted by addition of 19 μl/well compound dilution buffer (DMEM with Glutamax) using 125 μl 16-channel Matrix electronic pipette. 5 μl diluted compound was stamped from compound plate to assay plate containing A7r5 cells using Bravo (384-well head from Agilent) liquid handler and incubated at 37° C., 5% CO2 for 1 hour. Cells were fixed by addition of 5 μl 37% formaldehyde using 125 μl 16-channel Matrix electronic pipette and incubation for 20 min at room temperature. The assay plate was washed 5× with 60 μl/well wash buffer. […] Next, the assay plate was sealed, centrifuged at 1000 rpm for 5 seconds and incubated at 4° C. overnight on an orbital shaker at 300 rpm. […] The assay plate was centrifuged at 1000 rpm for 5 seconds and incubated on an orbital shaker at 300 rpm for 60 min at room temperature. Finally, assay plate was washed and wells left empty before measurement of 700 nm and 800 nm fluorescence intensities on Odyssey imager set at 4.0 mm focus offset.

The target in assay [2] is human catalytic domain ROCK II protein (amino acids 5-554) with a N-terminal GST tag (Homo sapiens, UniProt O75116). The assay can be described thus: biochemical.
Chain of human catalytic domain ROCK II protein (amino acids 5-554) with a N-terminal GST tag (O75116 5-554): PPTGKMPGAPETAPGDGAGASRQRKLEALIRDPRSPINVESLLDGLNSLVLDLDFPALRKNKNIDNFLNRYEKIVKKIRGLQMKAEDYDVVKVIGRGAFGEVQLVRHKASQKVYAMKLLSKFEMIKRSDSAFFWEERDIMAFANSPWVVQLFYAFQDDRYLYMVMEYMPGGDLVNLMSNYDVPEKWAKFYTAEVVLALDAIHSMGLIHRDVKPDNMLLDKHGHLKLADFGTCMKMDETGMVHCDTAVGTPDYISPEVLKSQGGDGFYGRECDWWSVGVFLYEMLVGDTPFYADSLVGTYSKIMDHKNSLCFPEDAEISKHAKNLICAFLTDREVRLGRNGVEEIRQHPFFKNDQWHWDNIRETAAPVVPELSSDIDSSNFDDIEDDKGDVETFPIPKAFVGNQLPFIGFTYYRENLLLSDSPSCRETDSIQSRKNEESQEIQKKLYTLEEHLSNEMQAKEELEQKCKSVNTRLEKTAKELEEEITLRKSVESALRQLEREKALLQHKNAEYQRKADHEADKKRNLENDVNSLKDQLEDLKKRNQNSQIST

Consider `COc1cccc(CN2C[C@H]3CN(c4ccncc4F)CCN3C2=O)c1` [Example 87, (R)-7-(3-Fluoropyridin-4-yl)-2-(3-methoxybenzyl)hexahydroimidazo[1,5-a]pyrazin-3(2H)-one], for which the results for the IC50 in assay [1] and in assay [2] were ≥ 5000 nM and 1490 nM, respectively.
On to `COc1ccc(F)c([C@@H](C)NC(=O)N2CCN(c3ccncc3F)CC2)c1` [Example 126], for which the results for the IC50 in assay [1] and in assay [2] were 924 nM and 60.9 nM, respectively.
As for `CC(NC(=O)N1CCN(c2ccncc2F)CC1)c1cccc(F)c1Cl` (single isomer, unassigned) [Example 22, N-(1-(2-Chloro-3-fluorophenyl)ethyl)-4-(3-fluoropyridin-4-yl)piperazine-1-carboxamide], the IC50 stood at 1020 nM in assay [1] and 46.7 nM in assay [2].
Take `O=C(NCc1cccc(OC(F)F)c1)N1CCN(c2ccncc2F)CC1` [Example 129]: the IC50 in assay [1] came out at 3540 nM; in assay [2] it was 84.5 nM.
For `[2H]C([2H])([2H])Oc1cccc([C@H](NC(=O)N2CCN(c3ccnc(F)c3)C[C@H]2C)C([2H])([2H])[2H])c1` [Example 116], the values for the IC50 in assay [1] and in assay [2] were 127 nM and 6.9 nM, respectively.
In the case of `C[C@@H](NC(=O)N1CCN(c2ccnc(F)c2)[C@@H](C)C1)c1cccc2c1CCO2` [Example 118], the results for the IC50 in assay [1] and in assay [2] were 711 nM and 16.2 nM, respectively.
For `COc1ccc(Cl)c([C@@H](C)NC(=O)N2CCN(c3ccnc(F)c3)C[C@H]2C)c1` [Example 3, (R)—N—((R)-1-(2-Chloro-5-methoxyphenyl)ethyl)-4-(2-fluoropyridin-4-yl)-2-methylpiperazine-1-carboxamide], in that order: 2410 nM and 59.9 nM.
On to `COc1cccc([C@@H](C)NC(=O)N2CCN(c3ccncc3Cl)C[C@H]2C)c1` [Example 155], for which the IC50 in assay [1] is 42.2 nM; in assay [2] it was 2.7 nM.
Consider `C[C@@H](NC(=O)N1CCN(c2ccncc2F)[C@@H](C)C1)c1cccc2c1CCO2` [Example 147], for which the IC50 in assay [1] turned out to be 23 nM; in assay [2] it was 3.2 nM.
As to `C[C@@H]1CN(c2ccncc2F)CCN1C(=O)N[C@H](C)c1ccc(F)cc1Cl` [Example 50, (R)—N—((R)-1-(2-Chloro-4-fluorophenyl)ethyl)-4-(3-fluoropyridin-4-yl)-2-methylpiperazine-1-carboxamide], the IC50 in assay [1] came out at 184 nM; in assay [2], 7.8 nM.
For the molecule `[2H]C([2H])([2H])Oc1cccc([C@@H](C)NC(=O)N2CCN(c3ccncc3F)C[C@H]2C)c1` [Example 82, (R)-4-(3-Fluoropyridin-4-yl)-N—((R)-1-(3-(methoxy-d3)phenyl)ethyl)-2-methylpiperazine-1-carboxamide], the IC50 in assay [1] is 9.1 nM; in assay [2], 2.8 nM.
In the case of `O=C(NCc1ccccc1Cl)N1CCN(c2ccncc2F)CC1` [Example 130], the IC50 was determined as 1660 nM in assay [1] and 122 nM in assay [2].
For `C[C@@H](NC(=O)N1CCN(c2ccncc2F)[C@@H](C)C1)c1cccc(OC(F)F)c1` [Example 145], the IC50 in assay [1] was determined as 413 nM; in assay [2], 12.4 nM.
For `Cc1cnc2cccc([C@@H](C)NC(=O)N3CCN(c4ccncc4F)CC3)n12` [Example 34, (R)-4-(3-fluoropyridin-4-yl)-N-(1-(3-methylimidazo[1,2-a]pyridin-5-yl)ethyl)piperazine-1-carboxamide], in that order: 104 nM and 7.5 nM.
As for `C[C@@H]1CN(c2ccncc2F)CCN1C(=O)N[C@H](C)c1cccc2c1N(C)CCO2` [Example 143], the IC50 in assay [2] is 3070 nM.
As to `COc1cccc([C@@H](C)NC(=O)N2CCN(c3ccnc(F)c3)C[C@H]2C)c1` [Example 1, (R)-4-(2-Fluoropyridin-4-yl)-N—((R)-1-(3-methoxyphenyl)ethyl)-2-methylpiperazine-1-carboxamide], the IC50 in assay [1] was 122 nM; in assay [2] it was 6.5 nM.
For `C[C@@H]1CN(c2ccnc(F)c2)CCN1C(=O)N[C@H](C)c1cccc2c1CCO2` [Example 114], the IC50 in assay [1] is 30.3 nM; in assay [2], 3.5 nM.
For `COc1cccc([C@@H](C)OC(=O)N2CCN(c3ccnc(F)c3)C[C@H]2C)c1` [Example 2, (R)-1-(3-Methoxyphenyl)ethyl (R)-4-(2-fluoropyridin-4-yl)-2-methylpiperazine-1-carboxylate], in that order: 1690 nM and 30.7 nM.
On to `C[C@@H]1CN(c2ccncc2F)CCN1C(=O)NCc1cccc2c1OCCO2` [Example 77, (R)—N-((2,3-Dihydrobenzo[b][1,4]dioxin-5-yl)methyl)-4-(3-fluoropyridin-4-yl)-2-methylpiperazine-1-carboxamide formate], for which the IC50 in assay [1] turned out to be 191 nM; in assay [2] it was 7.6 nM.
Turning to `COc1cccc([C@@H](C)NC(=O)N2CCN(c3ccncc3F)[C@H]3C[C@H]32)c1` [Example 152], the IC50 is 248 nM in assay [1] and 16.3 nM in assay [2].
For `COc1cccc([C@@H](C)NC(=O)N2CCN(c3ccncc3F)CC2)c1Cl` [Example 20], the IC50 in assay [1] is ≥ 5000 nM; in assay [2], 581 nM.
Turning to `C[C@@H](NC(=O)N1CCN(c2ccncc2F)CC1)c1cccc2c1OCO2` [Example 27, (R)—N-(1-(Benzo[d][1,3]dioxol-4-yl)ethyl)-4-(3-fluoropyridin-4-yl)piperazine-1-carboxamide], the IC50 in assay [1] came to 87.7 nM; in assay [2], 5.8 nM.
In the case of `C[C@@H](NC(=O)N1CCN(c2ccncc2F)CC1)c1cccc2occc12` [Example 29, (R)—N-(1-(Benzofuran-4-yl)ethyl)-4-(3-fluoropyridin-4-yl)piperazine-1-carboxamide], the IC50 stood at 54.1 nM in assay [1] and 4.5 nM in assay [2].
Consider `COc1cccc(CNC(=O)N2CCN(c3ccncc3F)[C@@H](C)C2)c1` [Example 150], for which the IC50 in assay [1] was found to be 707 nM; in assay [2], 20.1 nM.
On the same counts, the results for `COc1cccc(CNC(=O)N2CCN(c3ccncc3F)CC2)c1` [Example 25, 4-(3-Fluoropyridin-4-yl)-N-(3-methoxybenzyl)piperazine-1-carboxamide] are 749 nM and 52.3 nM.
In the case of `C[C@H](NC(=O)N1CCN(c2ccncc2F)C[C@H]1C)c1cccn2nccc12` [Example 62, (R)-4-(3-Fluoropyridin-4-yl)-2-methyl-N—((S)-1-(pyrazolo[1,5-a]pyridin-4-yl)ethyl)piperazine-1-carboxamide], the figures for the IC50 in assay [1] and in assay [2] were 490 nM and 108 nM, respectively.
`C[C@@H]1CN(c2ccnc(F)c2)CCN1C(=O)NCc1cccc2c1OCO2` [Example 6, (R)—N-(Benzo[d][1,3]dioxol-4-ylmethyl)-4-(2-fluoropyridin-4-yl)-2-methylpiperazine-1-carboxamide] displayed an IC50 in assay [2] of 117 nM.
In the case of `C[C@H](NC(=O)N1CCN(c2ccncc2F)C[C@H]1C)c1cccc2nn(C)cc12` [Example 72, (R)-4-(3-Fluoropyridin-4-yl)-2-methyl-N—((S)-1-(2-methyl-2H-indazol-4-yl)ethyl)piperazine-1-carboxamide], the IC50 in assay [2] came to 86.6 nM.
`O=C(NCc1cccc(OC(F)F)c1)N1CCN(c2ccnc(F)c2)CC1` [Example 103] showed an IC50 in assay [2] of 1060 nM.
In assay [2], `C[C@H]1CN(C(=O)NCc2cccc(OC(F)F)c2)CCN1c1ccnc(F)c1` [Example 122] showed an IC50 of 802 nM.
The molecule `Cc1cnc2cccc([C@H](C)NC(=O)N3CCN(c4ccncc4F)CC3)n12` [Example 35, (S)-4-(3-fluoropyridin-4-yl)-N-(1-(3-methylimidazo[1,2-a]pyridin-5-yl)ethyl)piperazine-1-carboxamide] came in with an IC50 in assay [2] of 142 nM.
The molecule `COc1cccc(CNC(=O)N2CCN(c3ccnc(F)c3)[C@@H](C)C2)c1` [Example 121] registered an IC50 in assay [2] of 102 nM.
Turning to `COc1cc(F)cc(CN2C[C@H]3CN(c4ccncc4F)CCN3C2=O)c1` [Example 85, (R)-2-(3-Fluoro-5-methoxybenzyl)-7-(3-fluoropyridin-4-yl)hexahydroimidazo[1,5-a]pyrazin-3(2H)-one], the IC50 in assay [2] came to 4680 nM.
In turn, `C[C@@H]1CN(C(=O)N[C@H](C)c2ccc(F)cc2Cl)CCN1c1ccnc(F)c1` [Example 14, (R)—N—((R)-1-(2-Chloro-4-fluorophenyl)ethyl)-4-(2-fluoropyridin-4-yl)-3-methylpiperazine-1-carboxamide] gave an IC50 in assay [2] of 3410 nM.
In assay [2], `C[C@@H]1CN(c2ccncc2F)C[C@@H](C)N1C(=O)NCc1ccccc1Cl` [Example 92, (2R,6R)—N-(2-Chlorobenzyl)-4-(3-fluoropyridin-4-yl)-2,6-dimethylpiperazine-1-carboxamide] had an IC50 of 563 nM.
